The values that follow come from PubChem BioAssay AID179 (DTP/NCI, 2004).

The subject of the experiment is CEM cells HIV-1 protection, formazan growth assay. Briefly: NCI AIDS Antiviral Assay. The note with it: for IC50: measured here: growth of uninfected CEM cells. An outline of the steps: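 Soluble formazan readout of cell growth; CEM cells ± HIV-1; 5 drug concs. ≥50% protection → retest; ≥50% again = moderately active; reproducible 100% = confirmed active.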

Activity calls are given as the source filed them.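 The calls were made as follows: active = compounds giving half or more protection of infected cells from virus-caused growth loss, again on retest; inactive = the rest.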 Bounds are passed on as bounds.

The EC50 is the concentration giving half of the maximal effect. One may read the IC50 as the concentration needed to halve the response being measured. `CC(=O)O[C@H]1CCN2C(=O)C=CC(OCc3ccccc3)C12` (some centres undefined): the EC50 is over 832 µM and the IC50 turned out to be 794 µM. On to `CC/C=C/c1cc2cc[nH]c2c2c1C(C)C[C@@H]2C` (some centres undefined), for which the result was inactive.

On to `O=C1NC(=O)/C(=C/c2ccc(F)cc2)N1`, for which the EC50 was over 200 µM and the half-inhibitory concentration (IC50) came out at 191 µM. The like results for `CCOC(=O)C(NC(=O)c1cccc(Cl)c1)(Nc1ccc(S(=O)(=O)Nc2cc(C)nc(C)n2)cc1)C(F)(F)F` (centres undefined) were, in that order, over 200 µM and over 200 µM. The like results for `CCOC(=O)/C(F)=C/c1ccc(C)cc1` were, in that order, over 126 µM and over 126 µM. Regarding `CN1CCC2(CC1)C(=O)N(N1CCCCCC1)C(=O)N2c1ccccc1`, the EC50 was over 200 µM and the IC50 was over 200 µM.

Turning to `O=C1C=C(C(O)CCO)C(=O)c2c(O)ccc(O)c21` (centres undefined), the outcome was inactive. In the case of `C=C(COC(=O)CC(C)(C)CC(=O)O)[C@@H]1CC[C@]2(COC(=O)CC(C)(C)CC(=O)O)CC[C@]3(C)[C@H](CC[C@@H]4[C@@]5(C)CC[C@H](OC(=O)CC(C)(C)CC(=O)O)C(C)(C)[C@@H]5CC[C@]43C)[C@@H]12`, the EC50 is over 200 µM and the IC50 was 24.5 µM.

Turning to `CC(=O)OCC1OC(Nc2ccc3nc(C)n(-c4cccc(C)c4)c(=O)c3c2)C(OC(C)=O)C(OC(C)=O)C1OC(C)=O` (centres undefined), the EC50 was over 126 µM and the IC50 was over 126 µM.

`COC1/C=C/OC2(C)Oc3c(C)c(O)c4c(O)c(c(C=NNC(=O)C(CO)(c5ccccc5)c5ccccc5)c(O)c4c3C2=O)NC(=O)/C(C)=C/C=C/C(C)C(O)C(C)C(O)C(C)C(OC(C)=O)C1C` (centres undefined): the EC50 is over 200 µM and the half-inhibitory concentration (IC50) worked out at 32.4 µM. The like results for `CCCCC1(C(=O)OCC)SCCCS1` were, in that order, over 75.9 µM and over 75.9 µM. The like results for `C#CCN(Cc1ccc2nc(OC)c(OC)nc2c1)c1cc(OC)c(OC)c(OC)c1` were, in that order, over 200 µM and 11.2 µM. In the case of `CCN(CC)C(=O)Cc1[nH][nH]c(=O)c1C(=O)N(CC)CC`, the EC50 was over 851 µM and the IC50 was over 851 µM.

On to `O=C(Nc1ccccc1)C(=O)C(C(=O)c1ccccc1F)C1OC(=O)c2ccccc21` (centres undefined), for which the EC50 is over 309 µM and the concentration for half-maximal inhibition (IC50) came to 17.4 µM.

Turning to `NC1CN(C(COCc2ccccc2)c2ccc(OCc3ccccc3)cc2)C1=O` (centres undefined), the result was inactive. On to `O=C(NC(=O)c1c(Cl)nc2sccn12)Nc1ccc(Cl)cc1`, for which the EC50 was over 10 µM and the half-maximal inhibitory concentration (IC50) was over 10 µM. `CC(=O)[C@@]1(O)CC[C@H]2[C@@H]3C[C@H](C)C4=CC(=O)C=C[C@]4(C)[C@@]3(F)[C@@H](O)C[C@@]21C`: the result was inactive. Same read-out and setting: under `COC(=O)c1ccc(NCC2=C(Br)C(=O)C=CC2=O)cc1Cl` stands “inactive”; under `Cc1cc(NCCCCCCCNc2cc(C)nc3cc([N+](=O)[O-])ccc23)c2ccc([N+](=O)[O-])cc2n1`, “inactive”.

In the case of `C1CCSCCCCSCCCCSCCCCSC1`, the EC50 is over 102 µM and the IC50 was over 102 µM.

As to `CCN(CCCl)c1cc(C(=O)NCCCN(C)CCCNC(=O)c2cc(N(CC)CCCl)c([N+](=O)[O-])cc2[N+](=O)[O-])c([N+](=O)[O-])cc1[N+](=O)[O-]`, the EC50 was over 200 µM and the concentration for half-maximal inhibition (IC50) was 10.7 µM. Regarding `O=C1Sc2cc([N+](=O)[O-])ccc2C(=O)N2CSCC12` (centres undefined), the EC50 is over 50.1 µM and the IC50 is over 50.1 µM. For the molecule `Nc1cnc2c(c1)c(=O)nc1n2CCS1`, the EC50 was over 200 µM and the IC50 is 117 µM. The like results for `CC1=C(C(=O)Nc2c(C)cccc2C)C(c2ccc3c(c2)OCO3)C(C(=O)Nc2c(C)cccc2C)=C(C)N1` were, in that order, over 25.7 µM and over 25.7 µM. Regarding `O=C1CC(c2ccccc2)NN1c1ccccc1` (centres undefined), the outcome was inactive. `COc1c(C)c(C/C=C(\C)CC/C=C(\C)CCC=C(C)C)c(OC)c(OC)c1OC`: the EC50 was over 200 µM and the 50% inhibitory concentration (IC50) is over 200 µM. `O=c1nc(-c2ccccc2)c2c3c(cccn13)CCC2`: the outcome was inactive. Regarding `COc1cc2cc3cc(-c4ccc(Cl)cc4)c(N4CCN(C)CC4)nc3nc2cc1OC`, the EC50 was over 39.8 µM and the IC50 stood at 6.61 µM. Take `O=[N+]([O-])c1ccc(N=Cc2ccccc2O)cc1`: the EC50 was over 200 µM and the IC50 was determined as 8.91 µM. For `C[N+](C)(C)CCCS(=O)(=O)[O-]`, in that order: over 200 µM and over 200 µM.

Regarding `CCC[CH2][Ge]([CH2]CCC)([CH2]CCC)[O]C(=O)C(OC(C)=O)c1ccccc1` (centres undefined), the EC50 was over 151 µM and the IC50 was found to be 4.27 µM. Turning to `N#CC1Cc2cc3c(cc21)OCO3` (centres undefined), the EC50 is over 200 µM and the IC50 is over 200 µM.

In the case of `CCN(CC)c1cc2oc(=O)cc(C)c2cc1NC(=O)c1ccccc1`, the EC50 is over 45.7 µM and the IC50 is 2.51 µM. For the molecule `CCN(CC)CCn1c2ccccc2c(=O)c2c(OC)ccc(OC)c21`, the result was inactive.

Consider `CCOC(=O)C(NC(=O)NCc1ccc(F)cc1)C(F)(F)F` (centres undefined), for which the EC50 is over 200 µM and the IC50 worked out at 81.3 µM.

Consider `CC(C)(C)C1CCC(C[Se]c2ccccc2)([N+](=O)[O-])CC1` (centres undefined), for which the outcome was inactive.

For `Cc1cc(-c2ccc(N=Nc3c(S(=O)(=O)O)cc4cccc(S(=O)(=O)O)c4c3O)c(C)c2)ccc1N=Nc1ccc2c(S(=O)(=O)O)ccc(N)c2c1O`, the outcome was inactive.

For `CC(=O)C1C(=O)C(=O)N(c2ccccc2)C1=O` (centres undefined), the EC50 is over 200 µM and the IC50 is over 200 µM. As to `S=C(N/N=C(\c1ccccc1)c1ccccn1)NC1CCCCC1`, the EC50 was over 200 µM and the half-maximal inhibitory concentration (IC50) amounted to 2.4 µM. For `CCSc1nn(-c2c3ccccc3nc3ccccc23)c(=S)s1`, the EC50 was over 200 µM and the half-maximal inhibitory concentration (IC50) was found to be 102 µM. For the molecule `CC(=O)Nc1ccc(S(=O)(=O)N/N=C/c2cc(I)cc([N+](=O)[O-])c2O)cc1`, the EC50 was over 501 µM and the 50% inhibitory concentration (IC50) stood at 79.4 µM. For the molecule `[N-]=[N+]=NC1CC(n2cc(Cc3ccccc3)c(=O)[nH]c2=O)OC1CO` (centres undefined), the outcome was inactive.

For the molecule `O=C(NC(=S)Nc1ccc(Cl)c(Cl)c1)c1cccc([N+](=O)[O-])c1`, the EC50 was over 200 µM and the IC50 worked out at 17 µM. With `C/C(CN1C(=O)c2ccccc2C1=O)=N\NS(=O)(=O)c1ccc2ccccc2c1`, the EC50 was over 447 µM and the IC50 is over 447 µM. As to `CCOC(=O)c1ccc(NC(=O)SCCC(=O)O)cc1`, the outcome was inactive.

Take `CCN(CC)CCN(C(=Nc1ccccc1)N1CCOCC1)c1ccccc1`: the EC50 was over 200 µM and the IC50 turned out to be 41.7 µM. In the case of `Cc1c(CCO)c(=O)n2n1CCCC2`, the EC50 is over 200 µM and the IC50 was over 200 µM. Consider `O=C1C(O)=C(O)C(=O)C(O)=C1O`, for which the EC50 was over 200 µM and the IC50 was over 200 µM. `O=[N+]([O-])c1ccc2cnn(CN3CCCCC3)c2c1`: the EC50 is over 200 µM and the IC50 was 89.1 µM. The like results for `CCOc1ccc(N=NC2C(=O)N(C(=O)CC(=O)Nc3ccc(Cl)cc3)N=C2C)cc1` (centres undefined) were, in that order, over 200 µM and over 200 µM.

With `CC(C)(CN1CCCCC1)C(=O)CC(SCCS(=O)(=O)O)c1ccc(Cl)c(Cl)c1` (centres undefined), the EC50 was over 200 µM and the IC50 was 1.2 µM.
